In this test the target is hDGAT2 (Homo sapiens (Human), UniProt Q96PD7). The experiment in a line: DGAT2 Enzymatic Activity Assay (triolein formation, LC/MS/MS). The test is classed as biochemical. The note with it: Sf-9 membrane prep expressing hDGAT2; 25 μM diolein, 10 μM oleoyl-CoA; room temperature; read-out: IC50 values for inhibition of DGAT2. Here is the method: In Vitro DGAT2 ASSAYS and Determination of IC50 Values for DGAT2 Inhibitors
Sequence of hDGAT2 (Q96PD7 whole entry): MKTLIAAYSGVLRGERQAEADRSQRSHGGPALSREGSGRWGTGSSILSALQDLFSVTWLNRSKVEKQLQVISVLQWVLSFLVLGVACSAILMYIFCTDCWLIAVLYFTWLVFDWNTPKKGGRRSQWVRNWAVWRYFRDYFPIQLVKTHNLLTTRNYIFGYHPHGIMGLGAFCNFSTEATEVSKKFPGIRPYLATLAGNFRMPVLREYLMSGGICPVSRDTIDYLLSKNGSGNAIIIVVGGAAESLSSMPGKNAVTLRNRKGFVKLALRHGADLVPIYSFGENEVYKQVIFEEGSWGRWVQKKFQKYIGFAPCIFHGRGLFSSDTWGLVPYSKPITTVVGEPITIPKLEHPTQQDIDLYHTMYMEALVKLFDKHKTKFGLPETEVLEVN
Insect Cell Expression and Membrane Preparation
Sf-9 insect cells were maintained in Grace's insect cell culture medium with 10% heated-inactivated fetal bovine serum, 1% Pluronic F-68 and 0.14 μg/ml Kanamycine sulfate in Erlenmeyer flasks at 28° C. in a shaker incubator. After infection with untagged hDGAT2 baculovirus at multiplicity of infection (MOI) 0.1 for 48 hours, cells were harvested. Cell pellets were suspended in buffer containing 10 mM Tris-HCl (pH 7.5), 1 mM EDTA (pH 8.0), 250 mM sucrose and Complete Protease Inhibitor Cocktail (Roche Diagnostics Corp., Indianapolis, Ill.), and sonicated on ice. Membrane fractions were isolated by ultracentrifugation (100,000× g pellet), resuspended in the same buffer, and frozen (−80° C.) for later use. The protein concentration was determined with the BCA Protein Assay kit (Pierce Biotechnology Inc., Rockford, Ill.). Expression of protein levels was analyzed by immunoblotting with goat polyclonal DGAT2 antibody C-15 and donkey anti-goat IgG HRP (Santa Cruz Biotechnology, Inc., Santa Cruz, Calif.) followed by detection with ECL reagent (GE Healthcare, Piscataway, N.J.).
LC/MS/MS analyses were performed using Thermal Fisher's LX4-TSQ Vantage system. This system consists of an Agilent binary high-performance liquid chromatography (HPLC) pumps and a TSQ Vantage triple quadrupole MS/MS instrument. For each sample, 2 μL samples from the top organic layer of in-plate liquid-liquid extraction were injected onto a Thermo Betabasic C4 column (2.1 mm×20 mm, 5 μm particle size). The samples were then eluted using the following conditions; mobile phase: methanol/water with 0.1% ammonium format=92/8 (v/v), flow rate: 1 mL/min, temperature: 25° C. Data was acquired in positive mode using a heated electrospray ionization (HESI) interface. The operational parameters for the TSQ Vantage MS/MS instrument were a spray voltage of 3000 V, capillary temperature of 280° C., vaporizer temperature 400° C., shealth gas 60 arbitrary unit, Aux gas 40 arbitrary units, S-lens 113 and collision gas 0.16 Pascals. […] (SRM) chromatograms of triolein (Q1: 902.9>Q3:602.3) and internal standard (Q1: 902.9>Q3:602.3) were collected for 40 sec. The peak area was integrated by Xcalibur Quan software. The ratio between the triolein generated in the reaction and spiked in internal standard were used to generate percentage inhibition and IC50 values. Compound percentage inhibition was calculated by the following formula: Inhibition %=1−[(compound response−low control)/(high control−low control)]×100%. Potent compounds were titrated and IC50 were calculated by 4 parameter sigmoidal curve fitting formula.
DGAT2 Enzymatic Activity Assay
DGAT2 activity was determined by measuring the amount of enzymatic product triolein (1,2,3-Tri(cis-9-octadecenoyl)glycerol) using the membrane prep mentioned above. The assay was carried out in deep well 384 plates in a final volume of 40 μL at room temperature. The assay mixture contained the following: assay buffer (100 mM Tris·Cl, pH 7.0, 20 mM MgCl2, 5% ethanol), 25 μM of diolein, 10 μM of oleoyl-CoA and 10 ng/μL of DGAT2 membrane.
Take `CC(C)(C)NC(=O)N1CCc2c(-c3cccc(C(F)(F)F)c3)ccc(C(=O)NCc3nccc4ccccc34)c2C1` [Example 19, N^2-(tert-butyl)-N^8-(isoquinolin-1-ylmethyl)-5-(3-(trifluoromethyl)phenyl)-3,4-dihydroisoquinoline-2,8(1H)-dicarboxamide]: the half-inhibitory concentration (IC50) stood at 197 nM.

Consider `Cn1c(CCNC(=O)c2ccc(-c3cccc(C(F)(F)F)c3)c3c2CN(C(=O)NC(C)(C)C)CC3)nc2ccccc21` [Example 20, N^2-(tert-butyl)-N^8-(2-(1-methyl-1H-benzo[d]imidazol-2-yl)ethyl)-5-(3-(trifluoromethyl)phenyl)-3,4-dihydroisoquinoline-2,8(1H)-dicarboxamide], for which the IC50 turned out to be 205 nM.

In the case of `CC(C)(C)NC(=O)N1CCc2c(-c3cccc(OC(F)(F)F)c3)ccc(C(=O)NCc3nccc4ccccc34)c2C1` [Example 22, N^2-(tert-butyl)-N^8-(isoquinolin-1-ylmethyl)-5-(3-(trifluoromethoxy)phenyl)-3,4-dihydroisoquinoline-2,8(1H)-dicarboxamide], the IC50 was determined as 235 nM.

For the molecule `CC(C)(C)NC(=O)N1CCc2c(-c3cccc(C(F)(F)F)c3)ccc(C(=O)NCCc3cn4ccccc4n3)c2C1` [Example 23, N^2-(tert-butyl)-N^8-(2-(imidazo[1,2-a]pyridin-2-yl)ethyl)-5-(3-(trifluoromethyl)phenyl)-3,4-dihydroisoquinoline-2,8(1H)-dicarboxamide], the IC50 is 244 nM.

`CC(C)(C)NC(=O)N1CCc2c(-c3cccc(C(F)(F)F)c3)ccc(C(=O)NCc3nccc4cccnc34)c2C1` [Example 24, N^8-((1,7-naphthyridin-8-yl)methyl)-N^2-(tert-butyl)-5-(3-(trifluoromethyl)phenyl)-3,4-dihydroisoquinoline-2,8(1H)-dicarboxamide]: the IC50 stood at 265 nM.

Turning to `Cc1nn2cc(CCNC(=O)c3ccc(-c4cccc(C(F)(F)F)c4)c4c3CN(C(=O)NC(C)(C)C)CC4)nc2s1` [Example 25, N^2-(tert-butyl)-N^8-(2-(2-methylimidazo[2,1-b][1,3,4]thiadiazol-6-yl)ethyl)-5-(3-(trifluoromethyl)phenyl)-3,4-dihydroisoquinoline-2,8(1H)-dicarboxamide], the IC50 was 271 nM.

Take `CC(C)(C)NC(=O)N1CCc2c(-c3cccc(C(F)(F)F)c3)ccc(C(=O)NCc3ccnc4ccccc34)c2C1` [Example 26, N^2-(tert-butyl)-N^8-(quinolin-4-ylmethyl)-5-(3-(trifluoromethyl)phenyl)-3,4-dihydroisoquinoline-2,8(1H)-dicarboxamide]: the concentration for half-maximal inhibition (IC50) came to 292 nM.

Take `CC(C)(C)NC(=O)N1CCc2c(-c3cccc(C(F)(F)F)c3)ccc(C(=O)NCc3conc3C#N)c2C1` [Example 27, N^2-(tert-butyl)-N^8-((3-cyanoisoxazol-4-yl)methyl)-5-(3-(trifluoromethyl)phenyl)-3,4-dihydroisoquinoline-2,8(1H)-dicarboxamide]: the IC50 amounted to 314 nM.

On to `CC(C)(C)NC(=O)N1CCc2c(-c3cccc(C(F)(F)F)c3)ccc(C(=O)NCCc3cscn3)c2C1` [Example 29, N^2-(tert-butyl)-N^8-(2-(thiazol-4-yl)ethyl)-5-(3-(trifluoromethyl)phenyl)-3,4-dihydroisoquinoline-2,8(1H)-dicarboxamide], for which the IC50 stood at 329 nM.

Consider `CC(C)(C)NC(=O)N1CCc2c(-c3cccc(C(F)(F)F)c3)ccc(C(=O)NCc3cnn4ccccc34)c2C1` [Example 30, N^2-(tert-butyl)-N^8-(pyrazolo[1,5-a]pyridin-3-ylmethyl)-5-(3-(trifluoromethyl)phenyl)-3,4-dihydroisoquinoline-2,8(1H)-dicarboxamide], for which the IC50 worked out at 351 nM.

`Cc1cc(C)n(CCNC(=O)c2ccc(-c3cccc(C(F)(F)F)c3)c3c2CN(C(=O)NC(C)(C)C)CC3)n1` [Example 31, N^2-(tert-butyl)-N^8-(2-(3,5-dimethyl-1H-pyrazol-1-yl)ethyl)-5-(3-(trifluoromethyl)phenyl)-3,4-dihydroisoquinoline-2,8(1H)-dicarboxamide]: the IC50 turned out to be 505 nM.

As for `Cc1sc(-c2ccccc2)nc1CNC(=O)c1ccc(-c2cccc(C(F)(F)F)c2)c2c1CN(C(=O)NC(C)(C)C)CC2` [Example 32, N^2-(tert-butyl)-N^8-((5-methyl-2-phenylthiazol-4-yl)methyl)-5-(3-(trifluoromethyl)phenyl)-3,4-dihydroisoquinoline-2,8(1H)-dicarboxamide], the IC50 came out at 539 nM.

For `CC(C)(C)NC(=O)N1CCc2c(-c3cccc(C(F)(F)F)c3)ccc(C(=O)NCCn3nnc4ccccc43)c2C1` [Example 34, N^8-(2-(1H-benzo[d][1,2,3]triazol-1-yl)ethyl)-N^2-(tert-butyl)-5-(3-(trifluoromethyl)phenyl)-3,4-dihydroisoquinoline-2,8(1H)-dicarboxamide], the IC50 amounted to 664 nM.

Regarding `CC(C)(C)NC(=O)N1CCc2c(-c3cccc(C(F)(F)F)c3)ccc(C(=O)NCc3n[nH]c4c3CCC4)c2C1` [Example 35, N^2-(tert-butyl)-N^8-((1,4,5,6-tetrahydrocyclopenta[c]pyrazol-3-yl)methyl)-5-(3-(trifluoromethyl)phenyl)-3,4-dihydroisoquinoline-2,8(1H)-dicarboxamide], the IC50 amounted to 727 nM.

For `CC(C)(C)NC(=O)N1CCc2c(-c3cccc(C(F)(F)F)c3)ccc(C(=O)NCC(c3ccccn3)N3CCOCC3)c2C1` (stereo not drawn) [Example 36, N^2-(tert-butyl)-N^8-(2-morpholino-2-(pyridin-2-yl)ethyl)-5-(3-(trifluoromethyl)phenyl)-3,4-dihydroisoquinoline-2,8(1H)-dicarboxamide], the IC50 was determined as 737 nM.

Regarding `CC(C)(C)NC(=O)N1CCc2c(-c3cccc(C(F)(F)F)c3)ccc(C(=O)NCCn3nncc3-c3ccccc3)c2C1` [Example 37, N^2-(tert-butyl)-N^8-(2-(5-phenyl-1H-1,2,3-triazol-1-yl)ethyl)-5-(3-(trifluoromethyl)phenyl)-3,4-dihydroisoquinoline-2,8(1H)-dicarboxamide], the IC50 came out at 739 nM.

For `Cc1cc(C(F)(F)F)nc(CCNC(=O)c2ccc(-c3cccc(C(F)(F)F)c3)c3c2CN(C(=O)NC(C)(C)C)CC3)n1` [Example 38, N^2-(tert-butyl)-N^8-(2-(4-methyl-6-(trifluoromethyl)pyrimidin-2-yl)ethyl)-5-(3-(trifluoromethyl)phenyl)-3,4-dihydroisoquinoline-2,8(1H)-dicarboxamide], the IC50 stood at 854 nM.

In the case of `CC(C)(C)NC(=O)N1CCc2c(-c3cccc(C(F)(F)F)c3)ccc(C(=O)NCc3scnc3-c3ccccc3)c2C1` [Example 39, N^2-(tert-butyl)-N^8-((4-phenylthiazol-5-yl)methyl)-5-(3-(trifluoromethyl)phenyl)-3,4-dihydroisoquinoline-2,8(1H)-dicarboxamide], the 50% inhibitory concentration (IC50) was 890 nM.

`CC(C)(C)NC(=O)N1CCc2c(-c3cccc(C(F)(F)F)c3)ccc(C(=O)NCCc3ccccc3C(F)(F)F)c2C1` [Example 40, N^2-(tert-butyl)-N^8-(2-(trifluoromethyl)phenethyl)-5-(3-(trifluoromethyl)phenyl)-3,4-dihydroisoquinoline-2,8(1H)-dicarboxamide]: the IC50 came to 905 nM.

Regarding `Cc1nc(C)c(CNC(=O)c2ccc(-c3cccc(C(F)(F)F)c3)c3c2CN(C(=O)NC(C)(C)C)CC3)s1` [Example 41, N^2-(tert-butyl)-N^8-((2,4-dimethylthiazol-5-yl)methyl)-5-(3-(trifluoromethyl)phenyl)-3,4-dihydroisoquinoline-2,8(1H)-dicarboxamide], the IC50 was 907 nM.

Regarding `CC(C)(C)NC(=O)N1CCc2c(-c3cccc(C(F)(F)F)c3)ccc(C(=O)NCCc3ncn[nH]3)c2C1` [Example 42, N^8-(2-(1H-1,2,4-triazol-5-yl)ethyl)-N^2-(tert-butyl)-5-(3-(trifluoromethyl)phenyl)-3,4-dihydroisoquinoline-2,8(1H)-dicarboxamide], the IC50 is 959 nM.

The values are drawn from patent publication US9877957B2, “Tetrahydroisoquinoline derivatives useful as inhibitors of diacylglyceride O-acyltransferase 2” (Merck Sharp & Dohme Corp., priority 2014, dated 2018).
